Assays:
[1] = tested on: adult human mesenchymal stem cells (MSC); experiment: Microscopic examination of morphology of retinoic acid-treated MSC; type: cell-based; conditions: RA 30 μM
Method: By way of illustration, MSC were treated with all-trans-retinoic acid and examined microscopically at 400× magnification. The purpose was to observe morphological changes as the cells were exposed to a known differentiating agent.

[2] = tested on: adult human mesenchymal stem cells (MSC); experiment: Immunofluorescence for neural-specific markers in RA-treated MSC; type: cell-based
Method: It was subsequently determined whether the retinoic acid-treated MSC express neuron-specific proteins. Cells were labeled for MAP2, which predominantly labels the cell bodies and dendrites; Neurofilament to stain for cell bodies and axons; and nestin for changes in morphology to neuronal cells. Synaptophysin was also analyzed as it is an indicator of synaptic regions. Labeling with anti-MAP2 and anti-synaptophysin were performed at different times following retinoic acid treatment. Untreated MSCs stained dim with MAP2, but negative for synaptophysin. In contrast, retinoic acid-treated cells stained bright for MAP2 at each time point, i.e., day 6, day 9 and day 12 retinoic acid treatment. […] This pattern of synaptophysin increased up to day 12 of treatment. Patterns were similar in ten different experiments, each with MSC from a different bone marrow donor.
RA-treated MSCs were washed with PBS (pH 7.4) and incubated for 1 hour at room temperature with the following antibodies: rabbit anti-MAP2 and/or synaptophysin monoclonal antibody at final concentrations of 1/500 and 1/200 respectively. In other labeling studies, cells were incubated with anti-GFAP, anti-neurofilament or anti-nestin, each at 1/500 final concentration. Antibodies were diluted in 0.05% TWEEN™/PBS (PBT) for membrane permeabilization. Primary antibodies were developed with secondary FITC-goat anti-rabbit IgG and PE-rat anti-mouse κ, both at final concentrations of 1/500. Secondary antibodies were incubated for 45 minutes at room temperature in the dark. After labeling, cells were fixed with 0.4% paraformaldehyde and then covered with VECTASHIELD®. Slides were immediately examined on a 3-color immunofluorescence microscope (NIKON® Instruments Inc., Melvelle, N.Y.).

[3] = tested on: MSC treated with retinoic acid for 6 days (functional neurons); experiment: Immunofluorescence/immunohistochemistry for substance P (SP) in RA-treated MSC; type: cell-based, human
Method: Administration or implantation of cultured neurons in a damaged tissue, in vivo, is influenced by the microenvironment. Thus, to determine whether a functional neuron could be influenced to express a particular neurotransmitter, expression of the preprotachykinin-I gene (PPT-I), which encodes the neurotransmitter substance P (SP), was analyzed. Regulation of the PPT-I gene has been studied in the context of inflammatory mediators that are presumed to be at the site of neural injury. […] Furthermore the receptor for IL-1 has been reported in neurons (Coti, et al. (2004) Frontier Biosci. 9:1433-1449). MSC, treated with retinoic acid for 6 days, were stimulated with 10 ng/mL of IL-1α for 16 hours and the cells studied for SP production by immunofluorescence using anti-SP. Treated cells were also labeled for synaptovesicle 2 to determine if SP is stored in synaptic vesicle. […] Retinoic acid-treated MSC were labeled with anti-SP and anti-synaptovesicle. The two labels were overlaid to gain insight as to the location of SP. […]
MSC on superfrost slides were treated with RA. […] The latter determined whether SP was stored in synaptic vesicles. SP and anti-synaptic vesicle protein 2 were detected with anti-rabbit IgG FITC and anti-mouse IgG1 κ PE, respectively. […]

[4] = tested on: PPT-I gene expression in retinoic acid-treated MSC; experiment: In situ hybridization for β-PPT-I in RA-treated MSC; type: cell-based, human; conditions: cocktail of three antisense oligomers; three bone marrow donors
Method: Thus, it was determined whether the PPT-I gene was expressed in retinoic acid-treated MSC by in situ hybridization with a cocktail of three oligomers.
MSC were cultured as above on superfrost slides and then washed with 0.05% PBT. Cells were hybridized by incubation with 500 μL of hybridization buffer (Sigma, St. Louis, Mo.). After 2 hours, slides were incubated with 200 μL of hybridization buffer containing a cocktail (200 ng/mL) of denatured biotin-conjugated β-PPT-1-specific oligo probes based on GENBANK Accession No. U37529 (Table 1). Control slides were incubated with a mixture of similar oligos in the sense orientations. Slides were subsequently incubated overnight at 37° C. in a humid chamber. Slides were washed with SSC solution and hybrids detected by incubation for 1 hour at room temperature with FITC-streptavidin at 1/500 dilution. Slides were covered with PBS and immediately examined with an immunofluorescence microscope.

[5] = tested on: adult human mesenchymal stem cells (MSC); experiment: Whole-cell patch clamp electrophysiological recordings of RA-treated MSC; conditions: for postsynaptic current amplitude / postsynaptic current decay time / postsynaptic current frequency / postsynaptic current half rise time: voltage clamp
[6] = functional neurons in culture for 6 days

CC1=C(/C=C/C(C)=C/C=C/C(C)=C/C(=O)O)C(C)(C)CCC1 [retinoic acid, All-trans-retinoic acid]
morphology of treated MSC ([1]; day 4): neuron-like structures | morphology of treated MSC ([1]; day 7): cell bodies with long thin processes and growth cones | morphology of treated MSC ([1]; treated 1 day, 400× magnification): asymmetrical morphology | synaptophysin fluorescence ([2]; 6-day treatment): slight fluorescence | glial fibrillary acidic protein (GFAP) staining ([2]; all treated cells): negative | synaptophysin fluorescence ([2]; day 9 of treatment): brighter fluorescence | MAP2 staining ([2]; each time point: day 6, day 9 and day 12 of treatment, ten experiments): bright | percentage of functional neurons developed, by immunostaining for neurofilament, MAP2 and nestin ([2]; n=100): 80±10 percentage | synaptophysin fluorescence ([2]; up to day 12 of treatment): increased | fluorescence for SP in unstimulated treated MSC ([3]; no IL-1α stimulation): dim fluorescence | PPT-I in situ hybridization fluorescence in cell bodies of neurons [4]: bright fluorescence | resting membrane potential ([5]; current clamp): −50 mV | spontaneous action potential firing frequency ([5]; current clamp): 20 s⁻¹ | action potential amplitude ([5]; current clamp, measured from resting membrane potential): 63.4±17.4 mV | action potential half-width ([5]; current clamp, n=768 events): 19.25 ± 0.73 ms | action potential rise time ([5]; current clamp, n=768 events): 3.39 ± 0.11 ms | fit of decay of postsynaptic currents [5, 6]: single exponential function | half rise time of some spontaneous post-synaptic currents [5, 6]: around 2 ms | fit of decay of postsynaptic currents ([5]; functional neurons in culture for 15 days): two exponentials | treated cells showing action potential by electrophysiology ([5]; n=25): one hundred | postsynaptic current amplitude ([5]; first set, n=171 events): 29.9±1.3 pA | postsynaptic current decay time ([5]; first set, n=171 events): 36.5 ± 1.0 ms | postsynaptic current frequency ([5]; first set, n=171 events): 2.49 s⁻¹ | postsynaptic current half rise time ([5]; first set, n=171 events): 12.96 ± 0.89 ms | postsynaptic current amplitude ([5]; second set, n=99 events): 6.1±0.2 pA | postsynaptic current decay time ([5]; second set, n=99 events): 31.3 ± 1.3 ms | postsynaptic current frequency ([5]; second set, n=99 events): 1.24 s⁻¹ | postsynaptic current half rise time ([5]; second set, n=99 events): 1.84 ± 0.13 ms

B1: IL-1α: Recombinant human IL-1α (rhIL-1α) provided by Hoffman LaRoche (protein, UniProt P01583 113-271, looked up)
Interleukin-1 alpha: SAPFSFLSNVKYNFMRIIKYEFILNDALNQSIIRANDQYLTAAALHNLDEAVKFDMGAYKSSKDDAKITVILRISKTQLYVTAQDEDQPVLLKEMPEIPKTITGSETNLLFFWETHGTKNYFTSVAHPNLFIATKQDYWVCLAGGPPSITDFQILENQA
fluorescence intensity for SP ([3]; MSC treated with retinoic acid 6 days, stimulated with 10 ng/mL IL-1α for 16 hours, six experiments): bright fluorescence intensity

— patent US7807462B2, “Method for producing a functional neuron” (University of Medicine and Dentistry of New Jersey, priority 2004, dated 2010)
